Test system: Sprague Dawley rats with DSS-induced colitis
Experiment: Rat colitis model: 9 days of 3% DSS-containing drinking water
Format: in vivo
Conditions: 100 mg/kg PO, QD
Procedure: Rat Colitis Model: 9 Days of 3% DSS-Containing Drinking Water
In this model, colitis was induced in SD rats by 9 days of ad lib exposure to drinking water containing 3% DSS. The disease activity index (DAI) score and ratio of colon weight:colon length were compared between three study groups (n=6 rats/group): vehicle, 3% DSS, and 3% DSS with positive control (sulfasalazine administered at 100 mg/kg PO, QD).
Acute colitis was induced by feeding female Sprague Dawley rats with 3% (wt/vol) DSS dissolved in drinking water. […] To quantify colitis with clinical activity, disease activity index (DAI) was determined daily for each animal as an average of three parameters: body weight change (scale 0-3), stool consistency (scale 0-3) and hemoccult blood (scale 0-3), as shown in Table 15. At necropsy, the entire colon was removed from the cecum to the rectum. The colon was measured for length, flushed with PBS to remove feces, weighed, and opened longitudinally to determine macroscopic score.

O=C(O)c1cc(/N=N/c2ccc(S(=O)(=O)Nc3ccccn3)cc2)ccc1O [sulfasalazine]
terminal ratio of colon weight:colon length, difference with and without treatment: significant | disease activity index (DAI) score compared to DSS alone (from Day 5): attenuated the disease score
